Test results from PubChem BioAssay AID743237 (The Scripps Research Institute Molecular Screening Center, 2013).
The source made the active and inactive calls. How the calls were made is not given here.

System: Galpha16-expressing cells, calcium fluorescence, counterscreen
Assay: Ga16 cell calcium inhibition, concentration series – fluorescence, dose response, counter-screen for TAAR1 antagonist project, late-stage follow-up (AID 743237)

SMILES | IC50
COc1cccc(-c2nn(-c3ccccc3)cc2C(=O)Nc2nccs2)c1 | > 29.9 µM (inactive)
CCCCC(=O)Nc1ccc(C(=O)Nc2ccc(S(=O)(=O)N3CCCC3)cc2)cc1 | > 29.9 µM (inactive)
CC(=O)c1ccc(NC(=O)c2ccc(COc3ccccc3[N+](=O)[O-])o2)cc1 | > 29.9 µM (inactive)
Cc1cccc(C(C#N)c2nc3ccccc3nc2C(F)(F)F)c1 (centres undefined) | > 29.9 µM (inactive)
O=C(NCCn1cc(SCc2ccccc2F)c2ccccc21)c1c(F)cccc1F | > 29.9 µM (inactive)
COc1cc(NC(=O)c2cc3ccccc3o2)c(OC)cc1Cl | > 29.9 µM (inactive)
CCOC(=O)C1CCCN(c2c(C(=O)c3ccccc3)cnc3ccc(OC)cc23)C1 (centres undefined) | > 29.9 µM (inactive)
Cc1coc(NC(=O)CSc2nc(-c3ccc(Cl)cc3)cc(C(F)(F)F)c2C#N)n1 | > 29.9 µM (inactive)
Cc1ccc(CSCC(=O)Nc2cc(S(=O)(=O)N3CCOCC3)ccc2OCC(F)(F)F)cc1 | > 29.9 µM (inactive)
